The supplement of paper PMC12317010
Counter-ions that a name gives are not always drawn.

Assay: collision cross section in nitrogen (drift tube, single-field); higher = larger gas-phase ion size
[1] = ion type: [M+H], ion source: ESI, ion mode: Positive
[2] = ion type: [M+Na], ion source: ESI, ion mode: Positive
[3] = ion source: ESI, ion mode: Positive, ion type: [M]+ (permanent cation)
[4] = ion type: [M+H], ion source: APCI, ion mode: Positive
[5] = ion type: [M-H], ion source: ESI, ion mode: Negative
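Note: chemical standards at 10 µM analysed by drift tube IMS-QTOF MS in about 3.95 torr nitrogen, mean of duplicate injections differing ≤1%, mass error below 10 ppm.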

| Compound | collision cross section in nitrogen [1] [Å²] | collision cross section in nitrogen [2] [Å²] | collision cross section in nitrogen [4] [Å²] | collision cross section in nitrogen [5] [Å²] | also measured |
| --- | --- | --- | --- | --- | --- |
| CCOP(=O)(CCP(=O)(OCC)OCC)OCC [Tetraethyl ethylenebisphosphonate] | 161.1 | 172.3 | – | – | – |
| CC[N+](CC)(CC)CC [Tetraethylammonium bromide] | – | – | – | – | collision cross section in nitrogen [3]: 125.7 Å² |
| CCCCC(CC)C(=O)OCCOCCOCCOCCOC(=O)C(CC)CCCC (stereo not drawn) [Tetraethylene glycol di(2-ethylhexanoate)] | – | 214.4 | – | – | – |
| C=C(C)C(=O)OCCOCCOCCOCCOC(=O)C(=C)C [Tetraethyleneglycol dimethacrylate] | – | 176.9 | 171.2 | – | – |
| NCCNCCNCCNCCN [Tetraethylenepentamine] | – | 148.5 | – | – | – |
| CCN(CC)C(=S)SSC(=S)N(CC)CC [Tetraethylthiuram disulfide] | – | 173.2 | – | – | – |
| COc1cc(CCC(=O)CC(=O)CCc2ccc(O)c(OC)c2)ccc1O [Tetrahydrocurcumin] | – | 181.2 | – | 184.8 | – |
| CC(C)OP(=O)(CP(=O)(OC(C)C)OC(C)C)OC(C)C [Tetraisopropyl methylenediphosphonate] | – | 185 | 174.6 | 177.7 | – |
| CC(C)C(=O)OCC(C)(C)C(O)C(C)C (stereo not drawn) [Texanol] | – | 161.4 | – | – | – |
| Cn1c(=O)c2[nH]cnc2n(C)c1=O [Theophylline] | 137.3 | 146.7 | 136.3 | – | – |
| c1ccc2[nH]c(-c3cscn3)nc2c1 [Thiabendazole] | 139.7 | 152.4 | 141.6 | 142 | – |
| N#C/N=C1\SCCN1Cc1ccc(Cl)nc1 [Thiacloprid] | 159.6 | 174.2 | – | 154.5 | – |
| CN1COCN(Cc2cnc(Cl)s2)C1=N[N+](=O)[O-] [Thiamethoxam] | – | 162.1 | 159.9 | 158.3 | – |
| Cc1ncc(C[n+]2csc(CCO)c2C)c(N)n1 [Thiamine nitrate] | – | – | – | – | collision cross section in nitrogen (ion source: APCI, ion mode: Positive, ion type: [M]+ (permanent cation)): 161.5 Å² |
| Cc1ncsc1CCO [Thiamine thiozole] | 126.5 | – | 126.1 | – | – |
| Cc1ncc(C[n+]2csc(CCO)c2C)c(N)n1 [Thiamine] | – | – | – | – | collision cross section in nitrogen [3]: 162.7 Å² |

| Compound | collision cross section in nitrogen [1] [Å²] | collision cross section in nitrogen [2] [Å²] | collision cross section in nitrogen [4] [Å²] | collision cross section in nitrogen [5] [Å²] | also measured |
| --- | --- | --- | --- | --- | --- |
| COC(=O)c1c(C(F)F)nc(C(F)(F)F)c(C2=NCCS2)c1CC(C)C [Thiazopyr] | 182.1 | 192.1 | 183.2 | 182.6 | – |
| O=C(Nc1ccccc1)Nc1cnns1 [Thidiazuron] | 147.9 | – | 148.4 | – | – |
| C[CH2][Hg][S]c1ccccc1C(=O)O [Thimerosal] | – | – | – | 146.9 | – |
| CSC(C)=NOC(=O)N(C)SN(C)C(=O)ON=C(C)SC [Thiodicarb] | – | 190.7 | – | – | – |
| CCOC(=O)NC(=S)Nc1ccccc1NC(=S)NC(=O)OCC [Thiophanate] | 186.6 | 189.6 | 187 | – | collision cross section in nitrogen (ion type: [M+], ion source: APCI, ion mode: Positive): 187.5 Å² |
| S=P(N1CC1)(N1CC1)N1CC1 [Thiotepa] | 132.5 | – | 132.5 | – | – |
| O=c1cc[nH]c(=S)[nH]1 [Thiouracil] | – | – | – | 116.1 | – |
| Cc1c[nH]c(=O)[nH]c1=O [Thymine] | – | – | – | 121 | – |
| Clc1ccccc1CN1CCc2sccc2C1 [Ticlopidine hydrochloride] | 156.8 | – | 156.4 | – | – |
| CC(C)(C)NC[C@H](O)COc1nsnc1N1CCOCC1 [Timolol maleate salt] | 176.5 | 172.7 | 176.1 | – | – |
| O=S(=O)(O)c1cc(O)c(O)c(S(=O)(=O)O)c1 [Tiron] | – | – | – | 145.8 | – |
| CCOC(=O)NNc1nncc2ccccc12 [Todralazine hydrochloride] | 151.8 | 158.8 | 152 | – | – |
| Cc1ccc(S(=O)(=O)NC(=O)NN2CCCCCC2)cc1 [Tolazamide] | 175.4 | 183.1 | 175.5 | 178.1 | – |
| CCCCNC(=O)NS(=O)(=O)c1ccc(C)cc1 [Tolbutamide] | – | 176.6 | – | 165 | – |
| Cc1ccc(C(=O)c2cc(O)c(O)c([N+](=O)[O-])c2)cc1 [Tolcapone] | – | – | – | 162.8 | – |
